The text below walks through data of ChEMBL document CHEMBL4138125, “Recent advances in discovery and development of natural products as source for anti-Parkinson's disease lead compounds” (2017).

What all share (type): functional
Experiment [1] can be described thus: Neuroprotective activity in OF1/SPF […] brain dopaminergic neurons assessed as suppression of MPP+-induced cell death at 0.1 to 10 uM pre-incubated for 4 days tarting from day 8 before MPP+ challenge for 48 hrs.
Experiment [2] can be described thus: Neuroprotective activity in OF1/SPF […] brain dopaminergic neurons assessed as suppression of long-term rotenone-induced cell death at 0.1 to 10 uM incubated concomitantly with rotenone from days 6 to 12.
Experiment [3] can be described thus: Neuroprotective activity in OF1/SPF […] brain dopaminergic neurons assessed as suppression of short-term rotenone -induced cell death at 0.1 to 10 uM pre-incubated for 4 days starting from day 8 before rotenone challenge for 48 hrs.

The structures appear in SMILES notation.

Turning to `CC1=CC(=O)C(C(C)C)=CC1=O` [THYMOQUINONE], the Activity in experiment [1] is recorded as 40%; in experiment [2] it was 24%; in experiment [3] it was 33%.
